Assay [1] addresses T1, recombinant aSyn fibrils (Homo sapiens, UniProt P37840). Kind of assay: In vitro radioligand binding assay with [^3H]BF2846 in recombinant aSyn fibrils.
Protocol: The affinity of the target compounds for aSyn was performed in recombinant human fibrils using an in vitro radioligand binding assay with [^3H]BF2846 as the radioligand, which binds to site 9 in recombinant aSyn fibrils [16].
In vitro radioligand biding assays were performed by using the pervious published method [12, 15] to measure the affinity of the target compounds for aSyn and Aβ. In brief, the radioligand for the aSyn assay was [^3H]BF2846 and the assay was conducted using recombinant fibrils. Three concentrations of test compounds (10 nM, 100 nM and 1 µM) were incubated with ~4 nM [^3H]BF2846 and 50 nM aSyn fibrils in a working buffer (50 mM Tris-HCl, 0.01% bovine serum albumin) at 37 °C for 1.5 h. The mixture (150 µL) was separated by filtration through a Unifilter-96 system (PerkinElmer, Shelton, CT, USA) and washed with an ice-cold buffer (10 mM Tris-HCl (pH 7.4), 15 mM NaCl and 20% EtOH) before scintillation counting. Total binding was defined in the absence of competitor, and non-specific binding was determined using 100 nM unlabeled BF2846. […] Data from three independent experiments were analyzed by non-linear regression in GraphPad Prism v.9.3.1 (GraphPad Inc., San Diego, CA, USA) to calculate Ki values using the equation, Ki = EC50/(1 + [radioligand]/Kd).
Assay [2] concerns the target T1, recombinant aSyn fibrils. Also noted: method as in PMID 40256311. The following applies: in vitro binding properties of lead M503-1619; cited from earlier work.
For a further assay, the target named is T2, Aβ (Homo sapiens, UniProt P05067).
T2 construct: from tissue; host or cells: Alzheimer disease (AD) brain tissue homogenate
T2 sequence (P05067 672-713 limits assumed): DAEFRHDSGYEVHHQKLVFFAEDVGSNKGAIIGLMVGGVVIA
Also noted: method as in PMID 40256311. The following applies: in vitro binding properties of lead M503-1619; cited from earlier work.

Read-outs that look alike come from different tables or passages of the source.

On to `COc1ccc(NC(=O)c2cnc(N3CCN(c4ncccn4)CC3)nc2N)cc1` [GT-9-40], for which, on recombinant aSyn fibrils [1], the inhibition constant Ki worked out at 41.9 ± 13.8 nM. As to `COc1ccc(NC(=O)c2cnc(N3CCN(c4ccccn4)CC3)nc2N)cc1` [Compound M503-1619], the Ki at recombinant aSyn fibrils [2] was 6.5 nM; at Aβ, 390 nM.

These data come from article PMC13416357 (Molecules, 2026).
